Assay results published in patent US12152035B2, “Androgen receptor binding molecule and use thereof” (Industrial Technology Research Institute, priority 2020, dated 2024).

How the values were obtained:
Format in all cases: cell-based
CWR22RV1 cells = assay: Cytotoxicity assay (AlamarBlue, 72 hours); details: 72 hours treatment, concentration not given
Experimental: (§1) Compound stock solutions of 10 mM were prepared with 100% DMSO and shaken for 10-15 seconds. The compound stock solutions were centrifuged at 12000 rpm (13523 rcf.) for 5 minutes and record the turbidity or precipitation state with a photo snapshot. The compound stock solutions were resuspended by shaking for 10-15 seconds, and serially diluted with 100% DMSO solution to make the compound concentration to 1000 μM, then to 100, 10, and 1 μM, and then 10-fold diluted with medium to 100, 10, 1, 0.1 μM (final 10% DMSO/medium) to complete compound test sample preparation. Compound treatment was performed by adding 10 μL of compound test sample to cells in each well of a 96-well plate (final 1% DMSO/medium).
(§2) Cells (CWR22Rv1 cells or VCaP cells) were cultured in RPMI-1640 medium supplemented with 10% fetal bovine serum, 10,000 U/mL penicillin and 10,000 μg/mL streptomycin. Cells were cultured at 37° C. in a humidified 5% CO2 incubator.
(§3) Cells were seeded in a 96-well plate (1×10^4 cells/well). 10 μL of the above compound test sample was added to each well of the 96-well plate on next day. After 72 hours of compound treatment, 10 μL of AlamaBlue reagent was added to each of 96 wells and incubated for 4 hours. The fluorescence value at Ex/Em=560/590 nm was read with a microplate reader, and the cytotoxicity (%) was calculated.
(§4) According to the above method, the compounds prepared above were subjected to cytotoxicity test with CWR22RV1 cells and VCaP cells.

VCaP cells = assay: Cytotoxicity assay (AlamarBlue, 72 hours); details: 72 hours treatment, concentration not given
Experimental: as §1, §2, §3, §4

[1] = tested on: full-length androgen receptor; assay: Western blot: degradation of full-length androgen receptor in CWR22RV1 cells; details: overnight
Experimental: CWR22Rv1 cells were maintained in RPMI medium supplemented with 10% fetal bovine serum and 1% penicillin-streptomycin at 37° C. in a humidified environment with 5% CO2.
CWR22Rv1 (5×10^5 cells) were seeded in each well of a 6-well plate and incubated overnight. Before compound treatment, the medium in the wells was replaced with a new medium. Cells were treated with different concentrations of compound overnight. Subsequently, cells were harvested by adding cold PBS and scraping cells. Cells were lysed according to general procedures and Western blot assays were performed to assess the ability of compounds to degrade full-length androgen receptor or androgen receptor splice variant 7. The cells or cell lysates were kept on ice at all times.
The following reagents were used in this experiment. Phosphate buffered saline (PBS) (Hyclone, SH30028.02), fetal bovine serum (Hyclone, SH30084.23, Lot AC14563276), penicillin-streptomycin solution (Hyclone, SV30010), 0.5% Trypsin-EDTA (Gibco, 15400-054), CST Lysis Buffer (CST-9803), Halt™ Protease and Phosphatase Inhibitor (ThermoFisher, 78442), Coomassie (Bradford) Protein Assay (Coomassie (Bradford) protein assay) (ThermoFisher, 23200), androgen receptor antibody (Cell Siginaling, CST-5153S), GAPDH antibody (Cell Siginaling, CST-5174S), HRP-goat-anti-rabbit (Jackson Immuno Research, 111-035-003), skim milk, SuperSignal West Pico Maximum Sensitivity substrate (ThermoFisher, 34080).
The compound prepared above was analyzed for its ability to degrade full-length androgen receptor and androgen receptor splice variant 7 in CWR22RV1 cells by Western blotting according to the method shown in item B.3-2 above.

[2] = compound concentration 0.1 (unit not given)
[3] = compound concentration 1 (unit not given)
[4] = compound concentration 10 (unit not given)

Structure (SMILES): Cc1cc([C@H](C(=O)N2C[C@H](O)C[C@H]2C(=O)N[C@@H](CC(=O)N2CCC(N3CCC(C#Cc4ccc(C5CCN(C6=Nn7c(nnc7C(F)(F)F)CC6)CC5)cc4)CC3)CC2)c2ccc(-c3scnc3C)cc2)C(C)C)on1 [Compound 9, (2S,4R)-4-hydroxy-1-((R)-3-methyl-2-(3-methylisoxazol-5-yl)butanoyl)-N—((S)-1-(4-(4-methylthiazol-5-yl)phenyl)-3-oxo-3-(4-((4-(1-(3-(trifluoromethyl)-7,8-dihydro-[1,2,4]triazolo[4,3-b]pyridazin-6-yl)piperidin-4-yl)phenyl)ethynyl)-[1,4′-bipiperidin]-1′-yl)propyl)pyrrolidine-2-carboxamide]
- Cytotoxicity, CWR22RV1 cells (cell viability %) (CWR22RV1 cells): ++ (40-60% : ++)
- Cytotoxicity, VCaP cells (cell viability %) (VCaP cells): +++ (<40% : +++)
- Degradation ability for full-length androgen receptor (residual rate %) [1, 2]: + (60-80%: +)
- Degradation ability for full-length androgen receptor (residual rate %) [1, 3]: +++ (<40%: +++)
- Degradation ability for full-length androgen receptor (residual rate %) [1, 4]: + (60-80%: +)

Structure (SMILES): Cc1cc([C@H](C(=O)N2C[C@H](O)C[C@H]2C(=O)N[C@@H](CC(=O)N2CCC(C#Cc3ccc(C4CCN(C5=Nn6c(nnc6C(F)(F)F)CC5)CC4)cc3)CC2)c2ccc(-c3scnc3C)cc2)C(C)C)on1 [Compound 14, (2S,4R)-4-hydroxy-1-((R)-3-methyl-2-(3-methylisoxazol-5-yl)butanoyl)-N—((S)-1-(4-(4-methylthiazol-5-yl)phenyl)-3-oxo-3-(4-((4-(1-(3-(trifluoromethyl)-7,8-dihydro-[1,2,4]triazolo[4,3-b]pyridazin-6-yl)piperidin-4-yl)phenyl)ethynyl)piperidin-1-yl)propyl)pyrrolidine-2-carboxamide]
- Cytotoxicity, CWR22RV1 cells (cell viability %) (CWR22RV1 cells): +++ (<40% : +++)
- Cytotoxicity, VCaP cells (cell viability %) (VCaP cells): +++ (<40% : +++)
- Degradation ability for full-length androgen receptor (residual rate %) [1, 2]: − (>80%; −)
- Degradation ability for full-length androgen receptor (residual rate %) [1, 3]: − (>80%; −)
- Degradation ability for full-length androgen receptor (residual rate %) [1, 4]: +++ (<40%: +++)

Structure (SMILES): Cc1ncsc1-c1ccc(CNC(=O)[C@@H]2C[C@H](O)CN2C(=O)[C@@H](NC(=O)COCCOc2ccc(C3CCN(C4=Nn5c(nnc5C(F)(F)F)CC4)CC3)cc2)C(C)(C)C)cc1 [Compound 19, (2S,4S)-1-((S)-3,3-dimethyl-2-(2-(2-(4-(1-(3-(trifluoromethyl)-7,8-dihydro-[1,2,4]triazolo[4,3-b]pyridazin-6-yl)piperidin-4-yl)phenoxy)ethoxy)acetamido)butanoyl)-4-hydroxy-N-(4-(4-methylthiazol-5-yl)benzyl)pyrrolidine-2-carboxamide]
- Cytotoxicity, CWR22RV1 cells (cell viability %) (CWR22RV1 cells): − (<80% : −)
- Cytotoxicity, VCaP cells (cell viability %) (VCaP cells): − (<80% : −)
- Degradation ability for full-length androgen receptor (residual rate %) [1, 2]: − (>80%; −)
- Degradation ability for full-length androgen receptor (residual rate %) [1, 3]: − (>80%; −)
- Degradation ability for full-length androgen receptor (residual rate %) [1, 4]: − (>80%; −)

Structure (SMILES): Cc1ncsc1-c1ccc(CNC(=O)[C@@H]2C[C@H](O)CN2C(=O)[C@@H](NC(=O)COCCCCCOc2ccc(C3CCN(C4=Nn5c(nnc5C(F)(F)F)CC4)CC3)cc2)C(C)(C)C)cc1 [Compound 21]
- Cytotoxicity, CWR22RV1 cells (cell viability %) (CWR22RV1 cells): +++ (<40% : +++)
- Cytotoxicity, VCaP cells (cell viability %) (VCaP cells): + (60-80% : +)
- Degradation ability for full-length androgen receptor (residual rate %) [1, 2]: − (>80%; −)
- Degradation ability for full-length androgen receptor (residual rate %) [1, 3]: − (>80%; −)
- Degradation ability for full-length androgen receptor (residual rate %) [1, 4]: +++ (<40%: +++)

Structure (SMILES): Cc1ncsc1-c1ccc(CNC(=O)[C@@H]2C[C@H](O)CN2C(=O)[C@@H](NC(=O)COCCCCCCOc2ccc(C3CCN(C4=Nn5c(nnc5C(F)(F)F)CC4)CC3)cc2)C(C)(C)C)cc1 [Compound 22]
- Cytotoxicity, CWR22RV1 cells (cell viability %) (CWR22RV1 cells): +++ (<40% : +++)
- Cytotoxicity, VCaP cells (cell viability %) (VCaP cells): +++ (<40% : +++)
- Degradation ability for full-length androgen receptor (residual rate %) [1, 2]: ++ (40-60%: ++)
- Degradation ability for full-length androgen receptor (residual rate %) [1, 3]: +++ (<40%: +++)
- Degradation ability for full-length androgen receptor (residual rate %) [1, 4]: +++ (<40%: +++)

Structure (SMILES): Cc1ncsc1-c1ccc(CNC(=O)[C@@H]2C[C@H](O)CN2C(=O)[C@@H](NC(=O)COCCCCCCCOc2ccc(C3CCN(C4=Nn5c(nnc5C(F)(F)F)CC4)CC3)cc2)C(C)(C)C)cc1 [Compound 23, (2S,4S)-1-((S)-3,3-dimethyl-2-(2-((7-(4-(1-(3-(trifluoromethyl)-7,8-dihydro-[1,2,4]triazolo[4,3-b]pyridazin-6-yl)piperidin-4-yl)phenoxy)heptyl)oxy)acetamido)butanoyl)-4-hydroxy-N-(4-(4-methylthiazol-5-yl)benzyl)pyrrolidine-2-carboxamide]
- Cytotoxicity, CWR22RV1 cells (cell viability %) (CWR22RV1 cells): +++ (<40% : +++)
- Cytotoxicity, VCaP cells (cell viability %) (VCaP cells): +++ (<40% : +++)

Structure (SMILES): O=C1CCC(N2Cc3c(NC(=O)COCCCCOc4ccc(C5CCN(C6=Nn7c(nnc7C(F)(F)F)CC6)CC5)cc4)cccc3C2=O)C(=O)N1 (stereo not shown) [Compound 30, N-(2-(2,6-dioxopiperidin-3-yl)-1-oxoisoindolin-4-yl)-2-(4-(4-(1-(3-(trifluoromethyl)-7,8-dihydro-[1,2,4]triazolo[4,3-b]pyridazin-6-yl)piperidin-4-yl)phenoxy)butoxy)acetamide]
- Cytotoxicity, CWR22RV1 cells (cell viability %) (CWR22RV1 cells): +++ (<40% : +++)
- Cytotoxicity, VCaP cells (cell viability %) (VCaP cells): +++ (<40% : +++)
- Degradation ability for full-length androgen receptor (residual rate %) [1, 2]: ++ (40-60%: ++)
- Degradation ability for full-length androgen receptor (residual rate %) [1, 3]: +++ (<40%: +++)
- Degradation ability for full-length androgen receptor (residual rate %) [1, 4]: +++ (<40%: +++)

Structure (SMILES): O=C1CCC(N2Cc3c(C#CCCCCOc4ccc(C5CCN(C6=Nn7c(nnc7C(F)(F)F)CC6)CC5)cc4)cccc3C2=O)C(=O)N1 (stereo not shown) [Compound 31, 3-(1-oxo-4-(6-(4-(1-(3-(trifluoromethyl)-7,8-dihydro-[1,2,4]triazolo[4,3-b]pyridazin-6-yl)piperidin-4-yl)phenoxy)hex-1-ynyl)isoindolin-2-yl)piperidine-2,6-dione]
- Cytotoxicity, CWR22RV1 cells (cell viability %) (CWR22RV1 cells): + (60-80% : +)
- Cytotoxicity, VCaP cells (cell viability %) (VCaP cells): + (60-80% : +)

Structure (SMILES): O=C1CCC(N2Cc3c(NC(=O)COCCCCCCOc4ccc(C5CCN(C6=Nn7c(nnc7C(F)(F)F)CC6)CC5)cc4)cccc3C2=O)C(=O)N1 (stereo not shown) [Compound 32, N-(2-(2,6-dioxopiperidin-3-yl)-1-oxoisoindolin-4-yl)-2-((6-(4-(1-(3-(trifluoromethyl)-7,8-dihydro-[1,2,4]triazolo[4,3-b]pyridazin-6-yl)piperidin-4-yl)phenoxy)hexyl)oxy)acetamide]
- Cytotoxicity, CWR22RV1 cells (cell viability %) (CWR22RV1 cells): + (60-80% : +)
- Cytotoxicity, VCaP cells (cell viability %) (VCaP cells): ++ (40-60% : ++)

Structure (SMILES): Cc1ncsc1-c1ccc(CNC(=O)[C@@H]2C[C@H](O)CN2C(=O)[C@@H](NC(=O)c2ccc(C(=O)N3CCC(C#Cc4ccc(C5CCN(C6=Nn7c(nnc7C(F)(F)F)CC6)CC5)cc4)CC3)cc2)C(C)(C)C)cc1 [Compound 33, 1-(3,3-dimethyl-2-(4-(4-((4-(1-(3-(trifluoromethyl)-7,8-dihydro-[1,2,4]triazolo[4,3-b]pyridazin-6-yl)piperidin-4-yl)phenyl)ethynyl)piperidine-1-carbonyl)benzamido)butanoyl)-4-hydroxy-N-(4-(4-methylthiazol-5-yl)benzyl)pyrrolidine-2-carboxamide]
- Cytotoxicity, CWR22RV1 cells (cell viability %) (CWR22RV1 cells): − (<80% : −)
- Cytotoxicity, VCaP cells (cell viability %) (VCaP cells): +++ (<40% : +++)

Structure (SMILES): Cc1ncsc1-c1ccc(CNC(=O)[C@@H]2C[C@H](O)CN2C(=O)[C@@H](NC(=O)COCCCCOc2ccc(C3CCN(C4=Nn5c(nnc5C(F)(F)F)CC4)CC3)cc2)C(C)(C)C)c(O)c1 [Compound 35, (2S,4S)-1-((S)-3,3-dimethyl-2-(2-(4-(4-(1-(3-(trifluoromethyl)-7,8-dihydro-[1,2,4]triazolo[4,3-b]pyridazin-6-yl)piperidin-4-yl)phenoxy)butoxy)acetamido)butanoyl)-4-hydroxy-N-(2-hydroxy-4-(4-methylthiazol-5-yl)benzyl)pyrrolidine-2-carboxamide]
- Cytotoxicity, CWR22RV1 cells (cell viability %) (CWR22RV1 cells): +++ (<40% : +++)
- Cytotoxicity, VCaP cells (cell viability %) (VCaP cells): +++ (<40% : +++)
